The values that follow come from patent US9957298B2, “Peptides as oxytocin agonists” (Hoffmann-La Roche Inc., priority 2014, dated 2018).

Starred links: 1 amine or outer side, 2 acyl side, 3 side chain; linkers in the order of their positions; H or OH if unused. Positions of bridges follow the written chain, without caps; N, C: chain ends. Non-standard residues stand in square brackets, D forms with d. Residues, ends and D or L forms follow the SMILES beside them. X1 = N[C@H](CC(=O)[*:1])C(=O)[*:2]; d(αMeL) = CC(C)C[C@@](C)(N)C(=O)O; 2Thi = N[C@@H](Cc1cccs1)C(=O)O; Cha = N[C@@H](CC1CCCCC1)C(=O)O; αMeL = CC(C)C[C@](C)(N)C(=O)O; Suc = O=C(CCC(=O)[*:2])[*:1]; Dap = NC[C@H](N)C(=O)O; Sar = CNCC(=O)O

This assay deals with T1, human Oxytocin (OTR) receptor (Homo sapiens, UniProt P30559).
T1 construct: expressed in transfected cells
T1 sequence (P30559 1-389): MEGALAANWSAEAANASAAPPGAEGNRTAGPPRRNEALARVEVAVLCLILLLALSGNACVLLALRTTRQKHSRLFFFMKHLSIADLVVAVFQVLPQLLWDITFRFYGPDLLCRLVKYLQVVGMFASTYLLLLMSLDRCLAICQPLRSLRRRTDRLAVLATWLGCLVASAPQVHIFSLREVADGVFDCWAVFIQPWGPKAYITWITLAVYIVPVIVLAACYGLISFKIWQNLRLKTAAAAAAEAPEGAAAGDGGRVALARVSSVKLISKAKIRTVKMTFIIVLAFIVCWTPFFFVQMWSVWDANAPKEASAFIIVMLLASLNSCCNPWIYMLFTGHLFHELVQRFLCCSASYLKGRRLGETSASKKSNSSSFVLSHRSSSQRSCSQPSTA
The assay can be described thus: Calcium flux assay (FLIPR), agonist mode, CHO cells expressing human oxytocin receptor. The assay is classed as cell-based. The conditions noted are these: for EC50: CHO cells, human OTR, calcium flux FLIPR, read-out: hOT EC50. An excerpt:
Chines Hamster Ovary (CHO) cells were transfected with expression plasmids encoding either the human V1a, the human Oxytocin (OTR) or the human V2 receptor, the later in combination with the chimeric Gqs5 G protein to redirect the signal to Calcium flux. Stable cells were cloned by limiting dilution to yield monoclonal cell lines expressing either human V1a, human V2+Gqs5 or human OTR receptors and selected based on functional responses detected on a fluorometric imaging plate reader (FLIPR) detecting Calcium flux in the cell after receptor activation. The stable cell lines were grown in F-12 K Nutrient Mixture (Kaighns Modification), containing 10% foetal bovine serum (FBS), 1% penicillin-streptomycin, 1% L-[…], 200 ug/ml Geneticin at 37° C. in a 10% CO2 incubator at 95% humidity.
On the afternoon before the assay, cells were plated at a density of 50,000 cells/well into black 96 well plates with clear bottoms to allow cell inspection and fluorescence measurements from the bottom of each well. The density of cells was sufficient to yield a confluent monolayer the next day. Hanks balanced salt solution, without phenol red, containing 20 mM HEPES (pH 7.3) and 2.5 mM probenecid (assay buffer) was prepared fresh for each experiment. Compound dilutions were made using a Beckman Biomek 2000 laboratory automation workstation, in assay buffer containing 1% DMSO. The dye-loading buffer consisted of a final concentration of 2 μM Fluo-4-AM (dissolved in DMSO and pluronic acid) in assay buffer. The existing culture media was removed from the wells and 100 μl of the dye-loading buffer was added to each well and incubated for approximately 60 min at 37° C. in a 5% CO2 incubator at 95% humidity. Once dye-loaded, the cells were washed thoroughly on an Embla cell washer with the assay buffer to remove any unincorporated dye. Exactly 100 μl assay buffer was left in each well.
Each 96 well plate containing dye-loaded cells was placed into the FLIPR machine and the laser intensity set to a suitable level to detect low basal fluorescence. To test compounds as agonists, 25 μl diluted compound was added to the plate 10 seconds into the fluorescent measurements and fluorescent response was recorded for 5 minutes. The fluorescence data was normalized to the endogenous full agonist dose-response set at 100% for the maximum response and 0% for the minimum. Each agonist concentration-response curve was constructed using a four parameter logistic equation with Microsoft Excel XLFit as follows: Y=Minimum+((Maximum−Minimum)/(1+10^(LogEC50-X)nH)), where y is the % normalized fluorescence, minimum is the minimum y, maximum is the maximum y, logEC50 is the log10 concentration which produces 50% of the maximum induced fluorescence, x is the log10 of the concentration of the agonist compound and H is the slope of the curve (the Hill Coefficient). The maximum value gives the efficacy of the agonist test compound in percentage. The concentration of agonist that produced a half-maximal response is represented by the EC50 value, the logarithm of which yielded the pEC50 value.
Background: A change in cytosolic calcium serves as a functional read-out for many receptors and channels.

The mark [1] stands for this setting: maximum response normalized to endogenous full agonist = 100%.

As for `CC[C@H](C)[C@@H]1NC(=O)[C@H](Cc2ccc(O)cc2)NC(=O)C[C@@H](N)C(=O)NC[C@@H](C(=O)N(C)CC(=O)N[C@@H](CC(C)C)C(=O)NCC(N)=O)NC(=O)[C@H](CC(N)=O)NC(=O)[C@H](CCC(N)=O)NC1=O` [Example 4] (YIQN[Dap][Sar]LG-NH2; linker N-5 via X1), the EC50 (usually the concentration at which the effect is half-maximal) came to 5 nM. In addition, the “hOT efficacy (%)” value under setting [1] is 126%.
In the same order, the values of `CC[C@H](C)[C@@H]1NC(=O)[C@H](Cc2ccc(O)cc2)NC(=O)CCC(=O)NC[C@@H](C(=O)N2CCC[C@H]2C(=O)N[C@](C)(CC(C)C)C(=O)NCC(N)=O)NC(=O)[C@H](CC(N)=O)NC(=O)[C@H](CCC(N)=O)NC1=O` [Example 7] (YIQN[Dap]P[d(αMeL)]G-NH2; linker N-5 via Suc) are 3 nM and 101%.
Regarding `CC[C@H](C)[C@@H]1NC(=O)[C@H](Cc2ccc(O)cc2)NC(=O)CCC(=O)NC[C@@H](C(=O)N2CCC[C@H]2C(=O)N[C@@H](CCSC)C(=O)NCC(N)=O)NC(=O)[C@H](CC(N)=O)NC(=O)[C@H](CCC(N)=O)NC1=O` [Example 8] (YIQN[Dap]PMG-NH2; linker N-5 via Suc), the EC50 is 1 nM. In addition, the “hOT efficacy (%)” value under setting [1] is 134%.
For `CC[C@H](C)[C@@H]1NC(=O)[C@H](Cc2ccc(O)cc2)NC(=O)CCC(=O)NC[C@@H](C(=O)N2CCC[C@H]2C(=O)N[C@H](C(=O)NCC(N)=O)[C@@H](C)CC)NC(=O)[C@H](CC(N)=O)NC(=O)[C@H](CCC(N)=O)NC1=O` [Example 9] (YIQN[Dap]PIG-NH2; linker N-5 via Suc), the EC50 amounted to 1 nM. Also, the “hOT efficacy (%)” value under setting [1] was found to be 132%.
`CC[C@H](C)[C@@H]1NC(=O)[C@H](Cc2ccc(O)cc2)NC(=O)CCC(=O)NC[C@@H](C(=O)N2CCC[C@H]2C(=O)N[C@H](C(=O)NCC(N)=O)[C@@H](C)O)NC(=O)[C@H](CC(N)=O)NC(=O)[C@H](CCC(N)=O)NC1=O` [Example 10] (YIQN[Dap]PTG-NH2; linker N-5 via Suc): the EC50 turned out to be 1 nM. The “hOT efficacy (%)” value under setting [1] amounted to 130%.
Take `CC[C@H](C)[C@@H]1NC(=O)[C@H](Cc2ccc(O)cc2)NC(=O)CCC(=O)NC[C@@H](C(=O)N2CCC[C@H]2C(=O)N[C@@H](CO)C(=O)NCC(N)=O)NC(=O)[C@H](CC(N)=O)NC(=O)[C@H](CCC(N)=O)NC1=O` [Example 11] (YIQN[Dap]PSG-NH2; linker N-5 via Suc): the EC50 came out at 3 nM. For the same compound, under setting [1], the “hOT efficacy (%)” value came to 128%.
`CC[C@H](C)[C@@H]1NC(=O)[C@H](Cc2ccc(O)cc2)NC(=O)CCC(=O)NC[C@@H](C(=O)N2CCC[C@H]2C(=O)N[C@H](C(=O)NCC(N)=O)C(C)C)NC(=O)[C@H](CC(N)=O)NC(=O)[C@H](CCC(N)=O)NC1=O` [Example 12] (YIQN[Dap]PVG-NH2; linker N-5 via Suc): the EC50 was found to be 1.6 nM. For the same compound, for the setting “CHO, maximum response normalized to endogenous full agonist = 100%, read-out: hOT efficacy (%)”, the Emax came out at 130%.
Turning to `CC[C@H](C)[C@@H]1NC(=O)[C@H](Cc2ccc(O)cc2)NC(=O)CCC(=O)NC[C@@H](C(=O)N2CCC[C@H]2C(=O)N[C@@H](CCC(N)=O)C(=O)NCC(N)=O)NC(=O)[C@H](CC(N)=O)NC(=O)[C@H](CCC(N)=O)NC1=O` [Example 13] (YIQN[Dap]PQG-NH2; linker N-5 via Suc), the EC50 was determined as 8 nM. Besides, the “hOT efficacy (%)” value under setting [1] was 128%.
In the case of `CC[C@H](C)[C@@H]1NC(=O)[C@H](Cc2ccc(O)cc2)NC(=O)CCC(=O)NC[C@@H](C(=O)N2CCC[C@H]2C(=O)N[C@@H](Cc2ccccc2)C(=O)NCC(N)=O)NC(=O)[C@H](CC(N)=O)NC(=O)[C@H](CCC(N)=O)NC1=O` [Example 14] (YIQN[Dap]PFG-NH2; linker N-5 via Suc), the EC50 worked out at 6 nM. Besides, under setting [1], the “hOT efficacy (%)” value amounted to 122%.
On to `CC[C@H](C)[C@@H]1NC(=O)[C@H](Cc2ccc(O)cc2)NC(=O)CCC(=O)NC[C@@H](C(=O)N2CCC[C@H]2C(=O)N[C@@H](Cc2cnc[nH]2)C(=O)NCC(N)=O)NC(=O)[C@H](CC(N)=O)NC(=O)[C@H](CCC(N)=O)NC1=O` [Example 15] (YIQN[Dap]PHG-NH2; linker N-5 via Suc), for which the EC50 came to 8 nM. Besides, under setting [1], the “hOT efficacy (%)” value was determined as 123%.
Take `CC[C@H](C)[C@@H]1NC(=O)[C@H](Cc2ccc(O)cc2)NC(=O)CCC(=O)NC[C@@H](C(=O)N2CCC[C@H]2C(=O)N[C@@H](Cc2c[nH]c3ccccc23)C(=O)NCC(N)=O)NC(=O)[C@H](CC(N)=O)NC(=O)[C@H](CCC(N)=O)NC1=O` [Example 16] (YIQN[Dap]PWG-NH2; linker N-5 via Suc): the EC50 was determined as 4 nM. For the same compound, the “hOT efficacy (%)” value under setting [1] is 100%.
Regarding `CC[C@H](C)[C@@H]1NC(=O)[C@H](Cc2ccc(O)cc2)NC(=O)CCC(=O)NC[C@@H](C(=O)N2CCC[C@H]2C(=O)N[C@@H](CC2CCCCC2)C(=O)NCC(N)=O)NC(=O)[C@H](CC(N)=O)NC(=O)[C@H](CCC(N)=O)NC1=O` [Example 18] (YIQN[Dap]P[Cha]G-NH2; linker N-5 via Suc), the EC50 came to 2 nM. Also, under setting [1], the “hOT efficacy (%)” value came out at 130%.
On the same counts, the results for `CC[C@H](C)[C@@H]1NC(=O)[C@H](Cc2ccc(O)cc2)NC(=O)CCC(=O)NC[C@@H](C(=O)N2CCC[C@H]2C(=O)N[C@@H](Cc2cccs2)C(=O)NCC(N)=O)NC(=O)[C@H](CC(N)=O)NC(=O)[C@H](CCC(N)=O)NC1=O` [Example 21] (YIQN[Dap]P[2Thi]G-NH2; linker N-5 via Suc) are 4 nM and 126%.
For the compound `CC[C@H](C)[C@@H]1NC(=O)[C@H](Cc2ccc(O)cc2)NC(=O)CCC(=O)NC[C@@H](C(=O)N(C)CC(=O)N[C@@](C)(CC(C)C)C(=O)NCC(N)=O)NC(=O)[C@H](CC(N)=O)NC(=O)[C@H](CCC(N)=O)NC1=O` [Example 23] (YIQN[Dap][Sar][αMeL]G-NH2; linker N-5 via Suc), the EC50 stood at 3 nM. Moreover, the “hOT efficacy (%)” value under setting [1] was 123%.
Consider `CC[C@H](C)[C@@H]1NC(=O)[C@H](Cc2ccc(O)cc2)NC(=O)CCC(=O)NC[C@@H](C(=O)N(C)CC(=O)N[C@@H](CO)C(=O)NCC(N)=O)NC(=O)[C@H](CC(N)=O)NC(=O)[C@H](CCC(N)=O)NC1=O` [Example 30] (YIQN[Dap][Sar]SG-NH2; linker N-5 via Suc), for which the EC50 was 2 nM. In addition, the “hOT efficacy (%)” value under setting [1] turned out to be 109%.
With `CC[C@H](C)[C@@H]1NC(=O)[C@H](Cc2ccc(O)cc2)NC(=O)CCC(=O)NC[C@@H](C(=O)N(C)CC(=O)N[C@@H](CCC(N)=O)C(=O)NCC(N)=O)NC(=O)[C@H](CC(N)=O)NC(=O)[C@H](CCC(N)=O)NC1=O` [Example 32] (YIQN[Dap][Sar]QG-NH2; linker N-5 via Suc), the EC50 is 5 nM. Besides, the “hOT efficacy (%)” value under setting [1] was found to be 112%.
Take `CC[C@H](C)[C@@H]1NC(=O)[C@H](Cc2ccc(O)cc2)NC(=O)CCC(=O)NC[C@@H](C(=O)N(C)CC(=O)N[C@@H](Cc2ccccc2)C(=O)NCC(N)=O)NC(=O)[C@H](CC(N)=O)NC(=O)[C@H](CCC(N)=O)NC1=O` [Example 33] (YIQN[Dap][Sar]FG-NH2; linker N-5 via Suc): the EC50 came to 3 nM. Under setting [1], the “hOT efficacy (%)” value is 111%.
